Measured values published in patent publication US20180193336A1, “SPRAY DRY FORMULATIONS” (Pulmokine, Inc., priority 2013, published 2018).
“And” between values parts separate entries of the source, which are not always exact repeats. Identical values can stand only once.

Assays:
rat MCT+PN model = test: RV pressure, PV loops and RV hypertrophy in rat MCT+PN model; type: in vivo; conditions: for RV systolic pressure: 14 days
Description: In a separate cohort of animals, the MCT+PN model was developed as described above, and PK10453 (Structure 2) was then administered for 4 or 8 min three times a day to the drug treated group. The vehicle control group underwent 4 min exposures three times a day. Pressure Volume (PV) loops were obtained with an admittance system (Scisense, Inc.) after 14 days of treatment, while rats were under general anesthesia with isoflurane and 100% FiO2. Also, or in the alternative, RV pressures were obtained in each group after 14 days of treatment. In a subset of each group, pressure Volume (PV) loops were obtained with an admittance system (high fidelity catheter FTE1918B, Scisense, Inc.) after 14 days of treatment. After induction of general anesthesia and intubation via tracheostomy, the rats were placed on a pressure controlled ventilator (TOPOVENT). General anesthesia consisted of isoflurane and 100% F1O2 with peak inspiratory pressure set at 18 cm, and PEEP 5 cm H2O. A left thoracotomy was performed with admittance catheter in the RV via the RV outflow tract.
At the end of the study, the heart and lungs were removed from ventilated animals under general anesthesia. Heparinized saline was infused under pressure through the main pulmonary artery. The right upper lobe was immediately tied off and placed in liquid nitrogen for Western blot and NanoPro 100 assay analysis. The heart was removed, and the RV free wall, interventricular septum and LV free wall dissected and weighed. Buffered formalin (10%) was infused under pressure both through the pulmonary artery and the trachea. Morphometric analysis was performed on H&E stained formalin fixed tissue sectioned at 8 μm. The media area and lumen area of pulmonary arterioles were measured with Image J software by a technician blinded to treatment group. Measurements were made on 20 pulmonary arterioles per section. The ratio of the lumen area to the total media area was determined. This ratio normalizes the variation in total pulmonary arteriole area. In addition, occlusive analysis was performed in the monocrotaline plus pneumonectomy study (specifically efficacy study 5) according to the method of Homma et al., “Involvement of RhoA/Rho kinase signaling in protection against monocrotaline-induced pulmonary hypertension in pneumonectomized rats by dehydroepiandrosterone.” Am J Physiol Lung Cell Mol Physiol. Vol. 295:L71-8 (2008). Briefly, pre-capillary arterioles were assigned grade 0 for no evidence of neointimal lesions, grade 1 for less than 50% luminal occlusion, and grade 2 for greater than 50% occlusion. Masson Trichrome stains were performed on lung sections from the MCT+PN model. […]

[1] = tested on: rat monocrotaline plus pneumonectomy model; test: Trichrome stain of lung sections, rat monocrotaline plus pneumonectomy model; type: in vivo; conditions: inhaled; compared to vehicle treated animal; FIG. 42
From the text: At the end of the study, the heart and lungs were removed from ventilated animals under general anesthesia. Heparinized saline was infused under pressure through the main pulmonary artery. The right upper lobe was immediately tied off and placed in liquid nitrogen for Western blot and NanoPro 100 assay analysis. The heart was removed, and the RV free wall, interventricular septum and LV free wall dissected and weighed. Buffered formalin (10%) was infused under pressure both through the pulmonary artery and the trachea. Morphometric analysis was performed on H&E stained formalin fixed tissue sectioned at 8 μm. The media area and lumen area of pulmonary arterioles were measured with Image J software by a technician blinded to treatment group. Measurements were made on 20 pulmonary arterioles per section. The ratio of the lumen area to the total media area was determined. This ratio normalizes the variation in total pulmonary arteriole area. In addition, occlusive analysis was performed in the monocrotaline plus pneumonectomy study (specifically efficacy study 5) according to the method of Homma et al., “Involvement of RhoA/Rho kinase signaling in protection against monocrotaline-induced pulmonary hypertension in pneumonectomized rats by dehydroepiandrosterone.” Am J Physiol Lung Cell Mol Physiol. Vol. 295:L71-8 (2008). […]

COc1cc(-c2cncc(N[C@@H](C)c3cccc(NC(=O)c4cncc(C)c4)c3)n2)ccc1O [PK10453, (S)—N-(3-(1-((6-(4-hydroxy-β-methoxyphenyl)pyrazin-2yl)amino)ethyl)phenyl)-5-methylnicotinamide]
(RV+IVS)/LV ratio (rat MCT+PN model; D4): 0.62±0.04 | RV systolic pressure (rat MCT+PN model; D4, 4 min three times a day): 40.4±2.7 mm Hg and 40.4+2.7 mm Hg | (RV+IVS)/LV ratio (rat MCT+PN model; D8): 0.68±0.05 | RV systolic pressure (rat MCT+PN model; D8, 8 min three times a day): 43±3.0 mm Hg and 43.0+3.0 mm Hg | collagen deposition in lung sections (trichrome stain) [1]: less collagen deposition
